This is an account of results in ChEMBL document CHEMBL1201862, “PubChem BioAssay data set” (2004).

Calls of active or inactive are those of the source. Bounds are passed on as bounds.

Test [1] deals with T1, DNA dC->dU-editing enzyme APOBEC-3G (Homo sapiens, UniProt Q9HC16). As to the kind of experiment: SAR analysis of small molecule inhibitors of APOBEC3G DNA Deaminase via a fluorescence-based single-stranded DNA deaminase assay - Set 2. To be noted: read-out: IC50_Mean. Type of test: functional.
T1 sequence (Q9HC16 whole entry): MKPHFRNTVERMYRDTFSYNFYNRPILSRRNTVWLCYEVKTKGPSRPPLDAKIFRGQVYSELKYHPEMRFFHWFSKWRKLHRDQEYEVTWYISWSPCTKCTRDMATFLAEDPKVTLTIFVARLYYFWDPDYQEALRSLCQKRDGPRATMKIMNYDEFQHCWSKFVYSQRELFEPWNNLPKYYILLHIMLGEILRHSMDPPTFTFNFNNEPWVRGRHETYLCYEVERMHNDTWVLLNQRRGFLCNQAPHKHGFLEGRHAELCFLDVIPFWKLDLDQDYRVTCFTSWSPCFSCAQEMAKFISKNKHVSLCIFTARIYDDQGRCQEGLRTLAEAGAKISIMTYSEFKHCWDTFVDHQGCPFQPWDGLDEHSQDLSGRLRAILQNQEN
Test [2] deals with T2, DNA dC->dU-editing enzyme APOBEC-3A (Homo sapiens, UniProt P31941). As to the kind of experiment: SAR analysis of small molecule inhibitors of APOBEC3A DNA Deaminase via a fluorescence-based single-stranded DNA deaminase assay - Set 2. The following applies: read-out: IC50_Mean. In kind it is functional.
T2 sequence (P31941 whole entry): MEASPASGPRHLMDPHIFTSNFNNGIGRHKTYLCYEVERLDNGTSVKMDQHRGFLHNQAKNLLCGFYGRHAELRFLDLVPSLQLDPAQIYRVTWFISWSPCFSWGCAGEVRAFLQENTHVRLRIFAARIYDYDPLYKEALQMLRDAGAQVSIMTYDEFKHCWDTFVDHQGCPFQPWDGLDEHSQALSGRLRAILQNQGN
The target in test [3] is T1, DNA dC->dU-editing enzyme APOBEC-3G. As to the kind of experiment: APOBEC3G deaminase inhibitors, SAR follow-up, biochemical, fluorescence, single-stranded DNA substrate (AID 602136). In kind it is functional. The following applies: read-out: IC50_Mean.
Test [4] has as its target T2, DNA dC->dU-editing enzyme APOBEC-3A. Description: Dose Response confirmation of small molecule APOBEC3A DNA Deaminase Inhibitors via a fluorescence-based single-stranded DNA deaminase assay. [Related pubchem assays (depositor defined):AID493011, AID493024]. In kind it is functional.
Test [5] deals with T1, DNA dC->dU-editing enzyme APOBEC-3G. In kind it is functional.
Test [6] addresses T2, DNA dC->dU-editing enzyme APOBEC-3A. Description: SAR analysis of small molecule inhibitors of APOBEC3A DNA Deaminase via a fluorescence-based single-stranded DNA deaminase assay. In kind it is functional. To be noted: read-out: IC50_Mean.
For test [7], the target named is Estrogen receptor beta (Homo sapiens, UniProt Q92731). As to the kind of experiment: ERβ–SRC-3 coactivator interaction inhibitors, confirmation, orthogonal assay, biochemical, ELISA, streptavidin-HRP readout (AID 1060). For orientation: In an ELISA, binding on a coated surface is turned into a signal by an enzyme label.
Test [8] concerns the target Low molecular weight phosphotyrosine protein phosphatase (Homo sapiens, UniProt P24666). Type of test: functional. The following applies: read-out: IC50_Mean.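 Note: Dose-response confirmation assay measuring inhibition of LMPTP enzyme activity by fluorescence intensity read-out.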
Test [9] deals with Melanin-concentrating hormone receptor 1 (Homo sapiens, UniProt Q99705). Description: Late-stage fluorescence-based counterscreen for antagonists of the G-protein coupled receptor 7 (GPR7): cell-based dose response assay to identify antagonists of the melanin-concentrating hormone receptor 1 (MCHR1) Set 6. Type of test: functional. On the technique in general: The purpose of a counterscreen is to sort out artefacts and off-target activity.

Test [10] deals with T3, Neuropeptides B/W receptor type 1 (Homo sapiens, UniProt P48145).
T3 sequence (P48145 whole entry): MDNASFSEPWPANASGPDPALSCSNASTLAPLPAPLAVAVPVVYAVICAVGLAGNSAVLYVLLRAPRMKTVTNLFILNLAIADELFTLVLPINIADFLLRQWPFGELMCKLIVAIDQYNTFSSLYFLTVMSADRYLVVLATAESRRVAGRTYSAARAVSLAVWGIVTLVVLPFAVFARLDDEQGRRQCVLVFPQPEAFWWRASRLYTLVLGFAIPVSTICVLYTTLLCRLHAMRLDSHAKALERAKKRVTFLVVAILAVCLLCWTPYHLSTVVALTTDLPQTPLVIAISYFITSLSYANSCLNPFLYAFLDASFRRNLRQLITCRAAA
As to the kind of experiment: GPR7 antagonist potency, late-stage follow-up, cell-based, fluorescence, dose response, set 6 (AID 588583). In kind it is functional.

Test [11] concerns the target Cyclin-dependent kinase 8 (Homo sapiens, UniProt P49336). Description: Navigating the Kinome. Panel member name: CDK8. In kind it is functional.
In test [12] the target is G protein-coupled receptor kinase 5 (Homo sapiens, UniProt P34947). Description: Navigating the Kinome. Panel member name: GPRK5. In kind it is functional.
Test [13] addresses MAP kinase-interacting serine/threonine-protein kinase 2 (Homo sapiens, UniProt Q9HBH9). Type of test: functional.
Test [14] addresses Mitogen-activated protein kinase kinase kinase kinase 4 (Homo sapiens, UniProt O95819). In kind it is functional.
Test [15] concerns the target Homeodomain-interacting protein kinase 2 (Homo sapiens, UniProt Q9H2X6). Type of test: functional.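 Note: measured within a kinome-wide kinase profiling panel, HIPK2 being one panel member.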
Test [16] has as its target Dual specificity protein kinase CLK4 (Homo sapiens, UniProt Q9HAZ1). Type of test: functional.
Test [17] addresses cAMP-dependent protein kinase catalytic subunit alpha (Homo sapiens, UniProt P17612). Type of test: functional.
The target in test [18] is Serine/threonine-protein kinase pim-1 (Homo sapiens, UniProt P11309). In kind it is functional.
Serine/threonine-protein kinase pim-1, sequence (P11309 whole entry): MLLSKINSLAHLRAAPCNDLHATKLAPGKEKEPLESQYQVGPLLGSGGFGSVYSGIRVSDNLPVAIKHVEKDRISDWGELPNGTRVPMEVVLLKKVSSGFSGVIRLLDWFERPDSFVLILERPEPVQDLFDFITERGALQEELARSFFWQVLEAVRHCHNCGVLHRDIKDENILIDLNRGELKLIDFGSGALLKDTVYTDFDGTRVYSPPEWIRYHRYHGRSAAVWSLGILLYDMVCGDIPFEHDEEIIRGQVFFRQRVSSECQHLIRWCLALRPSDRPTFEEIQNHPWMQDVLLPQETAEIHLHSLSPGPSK
In test [19] the target is T4, Interleukin-1 receptor-associated kinase 4 (Homo sapiens, UniProt Q9NWZ3).
T4 sequence (Q9NWZ3 whole entry): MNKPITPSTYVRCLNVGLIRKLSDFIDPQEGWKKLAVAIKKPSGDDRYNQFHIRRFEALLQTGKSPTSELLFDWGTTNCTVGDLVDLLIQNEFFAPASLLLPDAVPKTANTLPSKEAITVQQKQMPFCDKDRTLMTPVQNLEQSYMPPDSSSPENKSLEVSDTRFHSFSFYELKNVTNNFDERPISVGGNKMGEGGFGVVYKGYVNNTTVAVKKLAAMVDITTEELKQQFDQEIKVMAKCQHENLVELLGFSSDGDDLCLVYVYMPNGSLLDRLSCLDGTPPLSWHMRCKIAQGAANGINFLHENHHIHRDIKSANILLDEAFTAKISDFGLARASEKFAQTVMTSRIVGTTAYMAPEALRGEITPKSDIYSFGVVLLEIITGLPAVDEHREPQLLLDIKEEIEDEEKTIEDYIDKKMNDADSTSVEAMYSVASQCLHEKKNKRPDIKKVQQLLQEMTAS
In kind it is functional.

For test [20], the target named is Glycogen synthase kinase-3 beta (Homo sapiens, UniProt P49841). Type of test: functional.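 Note: value comes from a broad kinome profiling panel, with GSK3B as the panel member.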
Glycogen synthase kinase-3 beta, sequence (P49841 whole entry): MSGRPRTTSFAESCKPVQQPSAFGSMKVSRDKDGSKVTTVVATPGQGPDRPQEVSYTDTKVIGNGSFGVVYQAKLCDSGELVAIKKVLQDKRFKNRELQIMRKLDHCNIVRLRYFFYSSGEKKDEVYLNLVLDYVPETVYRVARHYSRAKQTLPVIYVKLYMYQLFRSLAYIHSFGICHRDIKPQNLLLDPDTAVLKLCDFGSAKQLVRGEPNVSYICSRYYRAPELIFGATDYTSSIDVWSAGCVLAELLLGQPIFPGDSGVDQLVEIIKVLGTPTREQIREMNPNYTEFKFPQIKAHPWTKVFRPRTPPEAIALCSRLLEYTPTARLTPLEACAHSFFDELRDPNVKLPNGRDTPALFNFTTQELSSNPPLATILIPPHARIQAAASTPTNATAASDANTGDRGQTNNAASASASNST
Test [21] concerns the target Cell division cycle 7-related protein kinase (Homo sapiens, UniProt O00311). In kind it is functional.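 Note: value obtained from a kinome-wide kinase panel.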
In test [22] the target is Sphingosine 1-phosphate receptor 5 (Homo sapiens, UniProt Q9H228). As to the kind of experiment: S1P5 receptor agonists, human, late-stage follow-up, counter-screen for S1P4 agonist project, cell-based, fluorescence, set 2 (AID 504867). In kind it is functional.
The target of test [23] is Sphingosine 1-phosphate receptor 1 (Homo sapiens, UniProt P21453). Description: Late-stage fluorescence-based dose-response cell-based counterscreen assay to identify agonists of the Sphingosine 1-Phosphate Receptor 4 (S1P4): Sphingosine 1-Phosphate Receptor 1 (S1P1) agonist assay Set 2. In kind it is functional.
Test [24] concerns the target Sphingosine 1-phosphate receptor 2 (Homo sapiens, UniProt O95136). Description: S1P2 receptor agonists, human, late-stage follow-up, counter-screen for S1P4 agonist project, cell-based, fluorescence, set 2 (AID 504873). In kind it is functional.
The target of test [25] is Sphingosine 1-phosphate receptor 3 (Homo sapiens, UniProt Q99500). As to the kind of experiment: Late-stage fluorescence-based dose-response cell-based counterscreen assay to identify agonists of the Sphingosine 1-Phosphate Receptor 4 (S1P4): Sphingosine 1-Phosphate Receptor 3 (S1P3) agonist assay Set 2. Type of test: functional.
Test [26] concerns the target Cyclin-dependent kinase 2 (Homo sapiens, UniProt P24941). In kind it is functional.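 Note: CDK2 measured as one member of a broad kinome profiling panel.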

Dual specificity protein kinase CLK4, sequence (Q9HAZ1 whole entry): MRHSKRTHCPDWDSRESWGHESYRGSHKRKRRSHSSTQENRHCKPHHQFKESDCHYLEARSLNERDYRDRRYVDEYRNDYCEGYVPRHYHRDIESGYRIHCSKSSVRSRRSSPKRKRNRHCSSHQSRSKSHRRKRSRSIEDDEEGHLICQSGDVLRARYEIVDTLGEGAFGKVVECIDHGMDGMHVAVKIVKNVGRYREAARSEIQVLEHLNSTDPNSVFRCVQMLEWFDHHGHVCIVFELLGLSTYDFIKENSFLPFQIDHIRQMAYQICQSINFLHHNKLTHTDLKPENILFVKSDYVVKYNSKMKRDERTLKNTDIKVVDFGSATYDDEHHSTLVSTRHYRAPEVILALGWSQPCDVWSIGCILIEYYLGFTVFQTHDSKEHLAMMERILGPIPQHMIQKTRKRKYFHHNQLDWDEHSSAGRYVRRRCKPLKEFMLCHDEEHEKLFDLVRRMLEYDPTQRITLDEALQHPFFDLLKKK
Mitogen-activated protein kinase kinase kinase kinase 4, sequence (O95819 whole entry): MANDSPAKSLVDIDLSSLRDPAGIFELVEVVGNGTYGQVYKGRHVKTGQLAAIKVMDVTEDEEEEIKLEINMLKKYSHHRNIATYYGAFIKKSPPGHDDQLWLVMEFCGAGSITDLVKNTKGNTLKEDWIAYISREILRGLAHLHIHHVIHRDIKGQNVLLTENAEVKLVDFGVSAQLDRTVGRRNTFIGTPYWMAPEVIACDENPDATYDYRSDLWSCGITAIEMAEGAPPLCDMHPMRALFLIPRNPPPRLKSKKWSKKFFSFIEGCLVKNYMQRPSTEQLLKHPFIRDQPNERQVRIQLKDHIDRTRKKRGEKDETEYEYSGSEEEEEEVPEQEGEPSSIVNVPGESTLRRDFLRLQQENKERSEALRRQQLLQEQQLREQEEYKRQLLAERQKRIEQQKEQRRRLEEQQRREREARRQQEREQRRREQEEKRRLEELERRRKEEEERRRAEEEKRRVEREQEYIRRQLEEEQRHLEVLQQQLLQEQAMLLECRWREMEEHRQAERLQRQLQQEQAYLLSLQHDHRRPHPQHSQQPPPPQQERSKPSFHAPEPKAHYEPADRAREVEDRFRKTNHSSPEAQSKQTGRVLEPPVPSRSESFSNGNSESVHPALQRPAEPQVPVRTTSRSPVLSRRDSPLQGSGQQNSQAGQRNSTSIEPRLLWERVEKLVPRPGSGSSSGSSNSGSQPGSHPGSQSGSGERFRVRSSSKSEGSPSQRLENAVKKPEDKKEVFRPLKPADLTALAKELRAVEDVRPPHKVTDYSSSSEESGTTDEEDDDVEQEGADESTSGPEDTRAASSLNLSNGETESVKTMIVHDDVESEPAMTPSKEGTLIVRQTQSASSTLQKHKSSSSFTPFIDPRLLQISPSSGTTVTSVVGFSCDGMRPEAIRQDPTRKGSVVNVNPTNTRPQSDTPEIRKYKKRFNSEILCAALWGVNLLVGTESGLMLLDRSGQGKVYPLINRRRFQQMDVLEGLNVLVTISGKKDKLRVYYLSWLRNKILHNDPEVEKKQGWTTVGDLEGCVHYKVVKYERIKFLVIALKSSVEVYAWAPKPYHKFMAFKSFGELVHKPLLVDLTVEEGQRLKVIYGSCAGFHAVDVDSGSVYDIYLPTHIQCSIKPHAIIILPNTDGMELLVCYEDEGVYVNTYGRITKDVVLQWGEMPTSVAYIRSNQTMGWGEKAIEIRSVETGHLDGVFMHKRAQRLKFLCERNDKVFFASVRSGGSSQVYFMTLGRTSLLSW
Cell division cycle 7-related protein kinase, sequence (O00311 whole entry): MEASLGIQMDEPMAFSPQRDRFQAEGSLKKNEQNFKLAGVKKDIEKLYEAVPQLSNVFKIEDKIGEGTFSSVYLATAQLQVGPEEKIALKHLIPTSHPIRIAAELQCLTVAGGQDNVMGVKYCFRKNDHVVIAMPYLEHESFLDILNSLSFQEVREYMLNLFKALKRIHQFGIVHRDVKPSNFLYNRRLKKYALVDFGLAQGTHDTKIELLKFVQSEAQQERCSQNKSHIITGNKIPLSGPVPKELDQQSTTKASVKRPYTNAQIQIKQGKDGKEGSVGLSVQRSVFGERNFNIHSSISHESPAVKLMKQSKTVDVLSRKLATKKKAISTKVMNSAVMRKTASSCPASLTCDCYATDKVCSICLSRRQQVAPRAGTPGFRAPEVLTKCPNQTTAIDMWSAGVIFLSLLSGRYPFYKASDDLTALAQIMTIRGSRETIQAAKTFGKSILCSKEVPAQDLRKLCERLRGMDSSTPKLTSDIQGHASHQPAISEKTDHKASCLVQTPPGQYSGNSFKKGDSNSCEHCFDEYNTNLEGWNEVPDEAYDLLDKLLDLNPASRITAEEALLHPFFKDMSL
Homeodomain-interacting protein kinase 2, sequence (Q9H2X6 whole entry): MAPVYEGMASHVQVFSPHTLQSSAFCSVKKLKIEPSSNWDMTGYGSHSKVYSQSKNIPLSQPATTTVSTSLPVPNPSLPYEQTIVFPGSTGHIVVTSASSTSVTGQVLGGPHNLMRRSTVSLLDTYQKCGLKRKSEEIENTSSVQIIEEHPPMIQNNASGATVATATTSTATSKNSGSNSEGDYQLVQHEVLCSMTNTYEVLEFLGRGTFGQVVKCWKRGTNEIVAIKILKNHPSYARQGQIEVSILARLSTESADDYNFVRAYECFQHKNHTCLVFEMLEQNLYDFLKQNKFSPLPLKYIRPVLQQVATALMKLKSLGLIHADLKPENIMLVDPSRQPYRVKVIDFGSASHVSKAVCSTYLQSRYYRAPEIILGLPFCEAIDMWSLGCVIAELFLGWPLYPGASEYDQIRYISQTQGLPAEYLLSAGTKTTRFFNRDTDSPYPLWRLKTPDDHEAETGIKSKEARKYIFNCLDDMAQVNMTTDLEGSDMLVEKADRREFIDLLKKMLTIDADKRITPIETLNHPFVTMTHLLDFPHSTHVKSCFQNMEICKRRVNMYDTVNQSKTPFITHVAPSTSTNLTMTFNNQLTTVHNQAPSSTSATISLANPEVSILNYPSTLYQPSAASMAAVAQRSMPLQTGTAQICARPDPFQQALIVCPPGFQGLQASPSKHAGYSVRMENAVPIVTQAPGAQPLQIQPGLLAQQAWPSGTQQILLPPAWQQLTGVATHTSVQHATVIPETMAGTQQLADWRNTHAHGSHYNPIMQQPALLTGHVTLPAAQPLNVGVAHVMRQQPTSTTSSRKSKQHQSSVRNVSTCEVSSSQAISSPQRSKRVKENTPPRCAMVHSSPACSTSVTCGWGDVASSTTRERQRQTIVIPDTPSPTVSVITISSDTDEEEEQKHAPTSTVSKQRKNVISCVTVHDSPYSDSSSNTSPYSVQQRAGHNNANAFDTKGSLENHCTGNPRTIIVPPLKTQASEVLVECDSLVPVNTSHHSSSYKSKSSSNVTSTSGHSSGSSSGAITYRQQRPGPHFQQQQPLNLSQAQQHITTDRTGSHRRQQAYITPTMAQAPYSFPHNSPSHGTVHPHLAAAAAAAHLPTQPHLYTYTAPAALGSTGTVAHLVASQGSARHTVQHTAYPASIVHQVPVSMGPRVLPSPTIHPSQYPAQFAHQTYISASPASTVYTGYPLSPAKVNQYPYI
Low molecular weight phosphotyrosine protein phosphatase, sequence (P24666 whole entry): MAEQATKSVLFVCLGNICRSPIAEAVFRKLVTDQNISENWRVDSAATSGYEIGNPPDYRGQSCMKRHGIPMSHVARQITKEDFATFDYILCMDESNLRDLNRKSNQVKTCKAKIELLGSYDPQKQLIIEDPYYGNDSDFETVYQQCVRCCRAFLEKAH

For the compound `O=C(NCc1ccc2c(c1)OCO2)c1cc2ncc(Br)cn2n1`, the IC50 is 73.1 µM (inactive) in [1]; 21.1 µM (inactive) in test [2]; 35 µM (inactive) in test [3]; 9.82 µM (active) in test [4]; 56.5 µM (active) in test [5]; 20.3 µM (inactive) in test [6]. The figures for the IC50 in [7] and in [8] were 363 nM (not active) and 37.4 µM (inactive), respectively.
Regarding `N#CC(c1c(Cl)cnn(Cc2cccc3ccccc23)c1=O)c1coc2ccccc12` (centres undefined), the IC50 in [9] and in test [10] was 294 nM (active) throughout.
With `Cc1cc(C)cc(NC(=O)NC2=NN(c3ccccc3)C(=O)C2)c1`, the figures for the Ki in [11] and in [12] were 3.16 µM (active) and 3.98 µM (active), respectively.
As to `O=C1Nc2ccccc2Nc2cc(-c3ccncc3Cl)ccc21`, the Ki (usually the dissociation constant of the complex between target and ligand, obtained from inhibition or displacement) in test [13] is 200 nM (active); in [14], 0.794 µM (active); in [15] it was 1.26 µM (active); in test [16], 63.1 nM (active); in [17] it was 0.794 µM (active); in test [18], > 10 µM (inactive). The Ki in [19] is 1 µM (active); in test [20] it was 251 nM (active); in test [21] it was 20 nM (active).
As to `C/N=C1/SC(=Cc2cc(C)n(Cc3ccc(F)cc3F)c2C)C(=O)N1C`, the EC50 (as a rule, the concentration at which the effect is half-maximal) in test [22] is 37.1 nM (active); in [23] it was 287 nM (active); in test [24], 13.1 µM (inactive); in test [25], > 25 µM (inactive).
As for `CCOC(=O)c1c[nH]n2c(=O)cc(-c3ccncc3)nc12`, the Ki in test [14] was > 10 µM (inactive); in [15] it was 0.0501 µM (active); in test [16] it was 25.1 nM (active); in test [17], > 7.94 µM (inactive); in test [18] it was 3.16 µM (active); in test [19], > 10 µM (inactive). Further, the inhibition constant Ki is 316 nM (active) in test [20], > 7.94 µM (inactive) in test [26] and 5.01 nM (active) in [21].
